Reference: PMC7570844, “Skin Damages—Structure Activity Relationship of Benzimidazole Derivatives Bearing a 5-Membered Ring System” (Molecules, 2020)

Assays:
[1] = system: human embryonic lung (HEL) cell cultures
[2] = system: herpes simplex virus-1 TK-KOS ACVr; assay: microbe, parasite or virus in culture; type: cell-based; settings: Human alphaherpesvirus 1, HEL, read-out: Antiviral EC50
[3] = system: vaccinia virus; assay: microbe, parasite or virus in culture; type: cell-based; settings: Orthopoxvirus vaccinia, HEL, read-out: Antiviral EC50
[4] = system: herpes simplex virus-1 (KOS); assay: Antiviral activity in HEL cell cultures (CPE, MTS); type: cell-based; settings: Human alphaherpesvirus 1, HEL cells
[5] = system: herpes simplex virus-2 (G); assay: Antiviral activity in HEL cell cultures (CPE, MTS); type: cell-based; settings: Human alphaherpesvirus 2; Herpes simplex virus-2, HEL cells
[6] = Ferric reducing antioxidant power (FRAP) test; settings: mean ± SEM
[7] = DPPH radical scavenging test; settings: mean ± SEM
[8] = system: Adeno virus-2; assay: Antiviral activity in HEL cell cultures (CPE, MTS); type: cell-based; settings: Adeno virus-2, HEL cells
[9] = UV filtering parameters of compounds in solution (MeOH, 290-400 nm)
[10] = system: Microsporum canis; assay: Antidermatophyte plaque growth inhibition; type: cell-based; settings: read-out: Percent growth inhibition
[11] = system: Trichophyton tonsurans; assay: Antidermatophyte plaque growth inhibition; type: cell-based; settings: read-out: Percent growth inhibition
[12] = UV filtering parameters of cosmetic formulation on PMMA plates (modified Diffey-Robson); type: physicochemical
[13] = system: Trichophyton mentagrophytes; assay: Antidermatophyte plaque growth inhibition; type: cell-based; settings: read-out: Percent growth inhibition
[14] = system: Microsporum gypseum; assay: Antidermatophyte plaque growth inhibition; type: cell-based; settings: Nannizzia gypsea, read-out: Percent growth inhibition
[15] = system: M. gypseum, M. canis, T. mentagrophytes, T. tonsurans and E. floccosum; assay: Antidermatophyte activity, all five dermatophytes taken together; type: cell-based; settings: 100 µg/mL
[16] = system: Epidermophyton floccosum; assay: Antidermatophyte plaque growth inhibition; type: cell-based; settings: read-out: Percent growth inhibition
[17] = system: vesicular stomatitis virus; assay: microbe, parasite or virus in culture; type: cell-based; settings: HeLa, read-out: Antiviral EC50
[18] = system: Coxsackie virus B4; assay: Antiviral activity in HeLa cell cultures (CPE, MTS); type: cell-based; settings: Enterovirus B; Coxsackie virus B4, HeLa cells
[19] = system: Respiratory syncytial virus; assay: microbe, parasite or virus in culture; type: cell-based; settings: human respiratory syncytial virus, HeLa cells, read-out: Antiviral EC50

Question: With `Nc1nc2c(ncn2COCCO)c(=O)[nH]1` [Acyclovir, reference compound] as the compound, how does the Cytotoxic concentration [1] read?
Answer: > 250 µM

Question: And the EC50 [2]?
Answer: 2 µM

Question: And the EC50 [3]?
Answer: > 250 µM

Question: What about the EC50 [4] of the same compound?
Answer: 0.6 µM

Question: What about the EC50 [5] of the same compound?
Answer: 0.6 µM

Question: With `O=c1[nH]c(=O)n([C@H]2C[C@H](O)[C@@H](CO)O2)cc1/C=C/Br` [Birivudin, Brivudin, reference compound] as the compound, how does the Cytotoxic concentration [1] read?
Answer: > 250 µM

Question: What about the EC50 [2] of the same compound?
Answer: 0.1 µM

Question: And the EC50 [3]?
Answer: 5.8 µM

Question: What about the EC50 [4] of the same compound?
Answer: 0.01 µM

Question: Which FRAP [6] does the source give for `O=C(O)/C=C/c1ccc(O)c(O)c1` [Caffeic acid, reference compound] here?
Answer: 10156.12 ± 15.5 µmolTE/g

Question: And the “DPPH (% Inhibition)” value ([7]; tested concentration 0.0105 mg/mL)?
Answer: 81.35 ± 0.35%

Question: Which Cytotoxic concentration [1] does the source give for `Nc1ccn(C[C@@H](CO)OCP(=O)(O)O)c(=O)n1` [Cidofovir, reference compound] here?
Answer: > 250 µM

Question: What about the EC50 [2] of the same compound?
Answer: 2.8 µM

Question: And the EC50 [3]?
Answer: 50 µM

Question: What about the EC50 [4] of the same compound?
Answer: 4.5 µM

Question: What about the EC50 [8] of the same compound?
Answer: 10 µM

Question: What about the EC50 [5] of the same compound?
Answer: 3.4 µM

Question: With `Nc1nc(O)c2ncn(COC(CO)CO)c2n1` [Ganciclovir, reference compound] as the compound, how does the Cytotoxic concentration [1] read?
Answer: > 250 µM

Question: And the EC50 [2]?
Answer: 0.2 µM

Question: And the EC50 [3]?
Answer: > 100 µM

Question: What about the EC50 [4] of the same compound?
Answer: 0.01 µM

Question: And the EC50 [5]?
Answer: 0.01 µM

Question: For `O=S(=O)(O)c1ccc2[nH]c(-c3ccccc3)nc2c1` [PBSA, 2-phenyl-1H-benzimidazole-5-sulphonic acid, reference compound], which SPF [9] is on record?
Answer: 3.40±0.17

Question: And the UVA/UVB [9]?
Answer: 0.29

Question: And the UVAPF [9]?
Answer: 1.03±0.08

Question: What about the “λc (critical wavelength)” value [9] of the same compound?
Answer: 322 nm

Question: What about the inhibition at 100 µg/mL [10] of the same compound?
Answer: < 0%

Question: What about the inhibition at 100 µg/mL [11] of the same compound?
Answer: < 0%

Question: And the SPF ([12]; 1% in formulation)?
Answer: 3.22

Question: What about the UVA/UVB ([12]; 1% in formulation) of the same compound?
Answer: 0.33

Question: And the UVAPF ([12]; 1% in formulation)?
Answer: 0.94

Question: What about the λc ([12]; 1% in formulation) of the same compound?
Answer: 319 nm

Question: And the SPF ([12]; 2% in formulation)?
Answer: 4.63

Question: And the UVA/UVB ([12]; 2% in formulation)?
Answer: 0.22

Question: And the UVAPF ([12]; 2% in formulation)?
Answer: 0.94

Question: And the λc ([12]; 2% in formulation)?
Answer: 321 nm

Question: And the SPF ([12]; 3% in formulation)?
Answer: 5.09

Question: And the UVA/UVB ([12]; 3% in formulation)?
Answer: 0.25

Question: And the UVAPF ([12]; 3% in formulation)?
Answer: 1.02

Question: What about the λc ([12]; 3% in formulation) of the same compound?
Answer: 324 nm

Question: What about the FRAP [6] of the same compound?
Answer: <LOQ *

Question: What about the inhibition at 100 µg/mL [13] of the same compound?
Answer: < 0%

Question: And the inhibition at 100 µg/mL [14]?
Answer: 9.62 ± 0.61%

Question: What about the “DPPH (% Inhibition)” value ([7]; tested at 1 mg/mL) of the same compound?
Answer: <LOQ *

Question: What about the “Activity on dermatophytes (in words)” value [15] of the same compound?
Answer: no activity on dermatophytes

Question: And the inhibition at 100 µg/mL [16]?
Answer: 7.41 ± 0.43%

Question: Which results are given for `NC(=O)c1ncn([C@@H]2O[C@H](CO)[C@@H](O)[C@H]2O)n1` [Ribaravin, ribavirin, reference compound]?
Answer: EC50 [17]: 112 µM; EC50 [18]: 250 µM; EC50 [19]: 10 µM
